This passage reports IC50 results from patent US11497759B2, “Repurposcins: targeted inhibitors of mitochondrial biogenesis for eradicating cancer stem cells” (LUNELLA BIOTECH, INC., priority 2017, dated 2022).

The test system of this test is MCF-7 breast CSCs. The test is described as follows: Inhibition of mammosphere-forming activity of MCF-7 breast CSCs. It counts as cell-based, human. Particulars: treated for 5 days in mammosphere media, read-out: IC-50 for blocking CSC propagation (mammosphere-forming activity). The source says:
The black bars show 2,4-dichlorobenzyl-TPP; the inclined bars show 1-naphthylmethyl-TPP; the dotted bars show 3-methylbenzyl-TPP; the unshaded bars show 2-chlorobenzyl-TPP; and the horizontal lined bars show 2-butene-1,4-bis-TPP. […] Data are represented as mean+/−SEM.

Some results are limits rather than exact numbers.

For `C(=CC[P+](c1ccccc1)(c1ccccc1)c1ccccc1)C[P+](c1ccccc1)(c1ccccc1)c1ccccc1` [2-butene-1,4-bis-TPP], the IC50 was less than 500 nM.
